Measurements taken from ChEMBL document CHEMBL5537165, “Hepatitis C: The Story of a Long Journey through First, Second, and Third Generation NS3/4A Peptidomimetic Inhibitors. What Did We Learn?” (J Med Chem, 2024).
pEC50, pIC50, pKi: −log10 of the molar value. *1 amine or outer side, *2 acyl side, *3 side chain or, on linkers, in order; H or OH if unused. Where a SMILES comes first, the peptide text is derived from it. Side-chain parts run from the residue outwards. [ ]: non-standard residue; d: D form. The star is where a group is joined. Tetrahydroisoquinolin(2-yl) = c1ccc2c(c1)CCN(*)C2; Pyrazinecarbonyl = O=C(c1cnccn1)*; Hyp = O=C(O)[C@@H]1C[C@@H](O)CN1; Abu = CC[C@H](N)C(=O)O; CO = O=C([*:1])[*:2]

Columns and labels:
[1] = target: Replicase polyprotein 1ab (Severe acute respiratory syndrome coronavirus 2, UniProt P0DTD1); assay: Inhibition of SARS-CoV-2 3CL protease by FRET assay
[2] = system: SARS-CoV-2; assay: Antiviral activity against SARS-CoV-2 infected in African green monkey Vero E6 cells assessed as reduction in viral replication measured after 48 hrs by Hoechst 33342 staining based analysis; format: functional, organism-based; details: Severe acute respiratory syndrome coronavirus 2, Vero C1008, 48 h
[3] = target: T1, Non-structural protein 4b (Hepacivirus hominis, UniProt F5B4I0); assay: Inhibition of Hepatitis C virus genotype 1b NS4B
T1 sequence (F5B4I0 whole entry): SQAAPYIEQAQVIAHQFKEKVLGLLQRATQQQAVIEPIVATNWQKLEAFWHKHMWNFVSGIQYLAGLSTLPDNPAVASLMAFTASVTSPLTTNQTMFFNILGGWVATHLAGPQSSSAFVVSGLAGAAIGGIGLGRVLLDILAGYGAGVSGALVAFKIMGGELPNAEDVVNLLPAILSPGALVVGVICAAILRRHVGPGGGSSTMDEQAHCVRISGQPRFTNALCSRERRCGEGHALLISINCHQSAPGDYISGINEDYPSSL

[4] = target: T1, Non-structural protein 4b; assay: Inhibition of Hepatitis C virus genotype 3a NS4B
[5] = Inhibition of Hepatitis C virus NS3 protease; parameters: species or system Hepacivirus hominis
[6] = Oral bioavailability in Sprague-Dawley rat; format: ADME, organism-based; details: in vivo
[7] = Oral bioavailability in Beagle dog at 2 mg/kg; format: ADME, organism-based, Canis lupus familiaris; details: in vivo
[8] = Clearance in Sprague-Dawley rat at 2 mg/kg, iv by LC-MS/MS analysis; format: ADME, organism-based; details: in vivo
[9] = target: T1, Non-structural protein 4b; assay: Binding affinity to Hepatitis C virus genotype 1a NS4B assessed as inhibition constant
[10] = target: T1, Non-structural protein 4b; assay: Binding affinity to Hepatitis C virus genotype 3a NS4B assessed as inhibition constant
[11] = target: T1, Non-structural protein 4b; assay: Inhibition of Hepatitis C virus genotype 1a NS4B
[12] = Cmax in Sprague-Dawley rat at 3 mg/kg, po and measured upto 24 hrs by LC-MS/MS analysis; format: ADME, organism-based; details: in vivo
[13] = Half life in Sprague-Dawley rat at 5 mg/kg, po by LC-MS/MS analysis; format: ADME, organism-based; details: in vivo
[14] = AUC (0 to infinity) in liver to plasma of Sprague-Dawley rat at 3 mg/kg,po; format: ADME, organism-based; details: in vivo
[15] = Half life in Beagle dog at 5 mg/kg, po by LC-MS/MS analysis; format: ADME, organism-based, Canis lupus familiaris; details: in vivo
[16] = AUC in Sprague-Dawley rat plasma […] at 10 mg/kg, po administered via gavage by LC-MS/MS analysis; format: ADME, organism-based; details: in vivo
[17] = Cmax in Beagle dog at 3 mg/kg, po and measured upto 24 hrs by LC-MS/MS analysis; format: ADME, organism-based, Canis lupus familiaris; details: in vivo
[18] = Clearance in Beagle dog plasma at 0.5 mg/kg, iv and measured upto 24 hrs by LC-MS/MS analysis; format: ADME, organism-based, Canis lupus familiaris
[19] = Volume of distribution at steady state in Sprague-Dawley rat at 1 mg/kg, iv; format: ADME, organism-based; details: in vivo, read-out: Vdss
[20] = Volume of distribution at steady state in Beagle dog at 0.5 mg/kg, iv and measured upto 24 hrs by LC-MS/MS analysis; format: ADME, organism-based, Canis lupus familiaris; details: in vivo, read-out: Vdss
[21] = AUC in Sprague-Dawley rat at 2 mg/kg, po; format: ADME, organism-based; details: in vivo
[22] = system: SARS-CoV-2; assay: Antiviral activity against SARS-CoV-2 infected in human Huh-7 cells assessed as reduction in viral growth; format: functional, organism-based; details: Severe acute respiratory syndrome coronavirus 2, Huh-7
[23] = target: T1, Non-structural protein 4b; assay: Inhibition of full length Hepatitis C virus genotype 1b NS4B expressed in Escherichia coli
[24] = target: T1, Non-structural protein 4b; assay: Binding affinity to full length Hepatitis C virus genotype 1b NS4B expressed in Escherichia coli assessed as inhibition constant
[25] = target: T1, Non-structural protein 4b; assay: Binding affinity to Hepatitis C virus genotype 1 NS4B assessed as inhibition constant

Work on `C=C[C@@H]1C[C@]1(NC(=O)[C@@H]1C[C@@H](Oc2cc(-c3csc(C(=O)CC)n3)nc3c(C)c(OC)ccc23)CN1C(=O)[C@@H](NC(=O)OC1CCCC1)C(C)(C)C)C(=O)O` yielded a pIC50 [1] of 8.00 and a pEC50 [2] of 7.92.
With `C=C[C@@H]1C[C@]1(NC(=O)[C@@H]1C[C@]2(CCc3c(c(C)nc4ccccc34)O2)CN1C(=O)[C@@H](NC(=O)OC(C)(C)C)C(C)(C)C)C(=O)NS(=O)(=O)C1(C)CC1` the pIC50 [3] was 10.48 and the pIC50 [4] was 8.24.
Compound `CC[C@H](C)[C@H](NC(=O)[C@@H](CC(=O)O)NC(=O)[C@H](CC(=O)O)NC(C)=O)C(=O)N[C@H](C(=O)N1CCC[C@H]1C(=O)N[C@@H](CS)C(=O)O)C(C)C` (Ac-D[dD]IVPC-OH) has a pIC50 [5] of 5.40.
`C=C[C@@H]1C[C@]1(NC(=O)[C@@H]1C[C@@H]2CN1C(=O)[C@H](C1CCCC1)NC(=O)O[C@@H]1CCC[C@H]1CCCCCn1c(nc3cc(OC)ccc3c1=O)O2)C(=O)NS(=O)(=O)C1(C)CC1` [MK-2748] gave a bioavailability [6] of 40%, a bioavailability [7] of 27% and a clearance [8] of 88 mL/min/kg. It also gave a pKi [9] of 11.05, a pKi [10] of 8.92 and a pIC50 [11] of 11.05. It also gave a Cmax [12] of 490 nM, a half-life [13] of 1.9 h and an AUC [14] of 2420 µM·h. It also gave a half-life [15] of 2.5 h, an AUC [16] of 28.9 µM·h and a Cmax [17] of 4400 nM. It also gave a clearance [18] of 1 mL/min/kg, a Vd [19] of 5 L/kg and a Vd [20] of 0.12 L/kg.
With `COc1ccc2c(O[C@@H]3C[C@H]4C(=O)N[C@]5(P(=O)(O)Cc6ccccc6)C[C@H]5CCCCCCC[C@H](NC(=O)OC5CCCC5)C(=O)N4C3)cc(-c3csc(NC(C)C)n3)nc2c1` the pIC50 [1] was 8.22.
`COc1ccc2c(O[C@@H]3C[C@H]4C(=O)N[C@]5(C(=O)O)C[C@H]5/C=C\CCCCC[C@H](NC(=O)OC5CCCC5)C(=O)N4C3)cc(-c3csc(NC(C)C)n3)nc2c1` gave a pIC50 [5] of 5.52.
For `C=C[C@@H]1C[C@]1(NC(=O)[C@@H]1C[C@@H](Oc2cc(-c3csc(NC(C)C)n3)nc3cc(OC)ccc23)CN1C(=O)[C@@H](NC(=O)OC1CCCC1)C(C)(C)C)P(=O)(O)O`, the pIC50 [1] was 9.05.
`COc1ccc2nc3c4c(c2c1)CC[C@]1(C[C@H]2C(=O)N[C@]5(C(=O)NS(=O)(=O)C6(C)CC6)C[C@H]5/C=C/CCCCC[C@H](NC(=O)O[C@@H]5CCC[C@H]5CCCCC3)C(=O)N2C1)O4` gave a pIC50 [1] of over 11.00.
For `Cc1cnc(C(=O)N[C@H]2CCCCC/C=C\[C@@H]3C[C@@]3(C(=O)NS(=O)(=O)C3CC3)NC(=O)[C@@H]3C[C@@H](Oc4nc5ccccc5c5ccccc45)CN3C2=O)cn1`, the bioavailability [7] was 41%, the AUC [21] was 19 µM·h and the half-life [13] was 0.4 h. It also gave a half-life [15] of 1.2 h.
`C=C[C@@H]1C[C@]1(NC(=O)[C@@H]1C[C@@H](Oc2nccc3ccccc23)CN1C(=O)[C@@H](NC(=O)OC(C)(C)C)C(C)(C)C)C(=O)NS(=O)(=O)C1CC1` gave a pIC50 [11] of 8.15 and a pEC50 [22] of 7.22.
`C=C[C@@H]1C[C@]1(NC(=O)[C@@H]1C[C@@H](Oc2cc(-c3ccccc3)nc3cc(OC)ccc23)CN1C(=O)[C@@H](NC(=O)OC(C)(C)C)C(C)(C)C)C(=O)NS(=O)(=O)C1CC1` gave a pIC50 [11] of 9.00 and a pEC50 [22] of 8.40.
For `C=C[C@@H]1C[C@]1(NC(=O)[C@@H]1C[C@@H]2CN1C(=O)[C@H](C(C)(C)C)NC(=O)O[C@@H]1C[C@H]1CCCCCc1nc3ccc(OC)cc3cc1O2)C(=O)NS(=O)(=O)C1CC1`, the pKi [10] was 9.51, the pIC50 [23] was 7.89 and the pKi [24] was 10.70.
Work on `CC(C)(C)OC(=O)N[C@H]1CCCCC/C=C\[C@@H]2C[C@@]2(C(=O)NS(=O)(=O)C2CC2)NC(=O)[C@@H]2C[C@@H](OC(=O)N3Cc4cccc(F)c4C3)CN2C1=O` [DANOPREVIR] yielded a pKi [9] of 9.00.
With `CC[C@@H](C=O)NC(=O)[C@@H]1C[C@@H](OC(=O)N2CCc3ccccc3C2)CN1C(=O)[C@@H](NC(=O)[C@@H](NC(=O)c1cnccn1)C(C)C)C(C)C` (Pyrazinecarbonyl-VV[Hyp]([CO-Tetrahydroisoquinolin(2-yl)])[Abu]-aldehyde) the pKi [25] was 6.05.
Work on `C=C[C@@H]1C[C@]1(NC(=O)[C@@H]1C[C@@H](Oc2ncc(OC)c3ccccc23)CN1C(=O)[C@@H](NC(=O)OC(C)(C)C)C(C)(C)C)C(=O)NS(=O)(=O)C1CC1` yielded a pIC50 [11] of 8.15 and a pEC50 [22] of 7.72.
`COc1ccc2c(O[C@@H]3C[C@H]4C(=O)N[C@]5(P(=O)(O)Cc6c(F)cccc6F)C[C@H]5CCCCCCC[C@H](NC(=O)OC5CCCC5)C(=O)N4C3)cc(-c3csc(NC(C)C)n3)nc2c1Cl` [GS-9256] gave a pKi [24] of 10.05 and a pEC50 [22] of 7.70.
